Data set [1] relates to CT26 tumors. Kind of data set: Anti-tumor activity of systemically administered 5FU in tumor-xenografted mice. The following applies: three consecutive intraperitoneal injections, vs normal saline. The class given is in vivo. How it is done:
Male BALB/c mice (6 weeks of age, Envigo, Israel) were used for all in-vivo experiments. All experiments were performed with approval and in accordance with the guidelines of the Institutional Animal Care and Use Committee at The Hebrew University of Jerusalem. 1.5×10^6 CT26 cells were injected subcutaneously into the right anterior limb of each mouse. Ten days later (day 0) colorectal tumor appeared at the injection site. The mice were randomly allocated to control and experimental groups.
Following tumor creation systemic administration via intraperitoneal (IP) injection of 5FU (experiment) or normal saline (control) was performed. 5FU injections were carried out on days 3, 4, 5. Tumor progression was evaluated by measuring the tumor volume using a Vernier caliper at days 0,1,3,4,6,8 and 10.
Statistical analyses of tumor volumes were performed using RM two-way Analysis of Variation (ANOVA) with a confidence interval of 95% using post hoc Dunnet' s analysis of multiple comparisons for the tumor treated with 5FU bounded to 6×IONPs and Sidak's analysis for the tumor treated with free 5FU. Statistical analysis of iron staining quantification in the spleen was performed using the nonparametric Kruskal-Wallis test with a confidence interval of 95% using post hoc Dunn's analysis of multiple comparisons.

Data set [2] is described as follows: Bound avastin concentration on IO/HSA NPs (ELISA). Type of data set: physicochemical. To be noted: via ELISA method. How it is done:
200 μl of NHS-PEG-MA [MA=melimide] (MW=3000 g/mol) were added to sterile IO/HSA nanoparticles dispersion in PBS (5 ml, 10 mg/mL). The reaction mixture was shaken at room temperature for 30 min. The derivatized PEGMA-conjugated IO/HSA NPs PBS dispersion was washed and eluted with bicarbonate buffer in a magnetic column, followed by immediate addition under sterile conditions of 40 μl of AV aqueous solution (25 mg/ml). The reaction mixture was shaken at 4° C. for 1.5 h. then, 10 weight % glycine solution (10 mg) were added to the AV-conjugated IO/HSA NPs bicarbonate aqueous dispersion to block residual sites. The AV-IO/HSA nanoparticles were then washed and eluted through a magnetic column with PBS and stored under sterile conditions.
Avastin was physically conjugated to the IO/HSA nanoparticles by adding 7.5 mg of avastin to 4 mL of the IO/HSA NPs PBS dispersion (10 mg/mL). […]
The attached and remaining concentrations of physically and covalently conjugated avastin was determined through ELISA assay using a standard protocol. The calculated covalent bound avastin concentration (via ELISA method) was 0.10 mg/1 mg of the nanoparticles. The calculated physical conjugated avastin concentration (via ELISA method) was 0.13 mg/1 mg of the nanoparticles (30% more of the covalent binding process).

For data set [3], the system named is CT26 tumor (Bev resistant). Kind of data set: Anti-tumor activity of Bev SPIONs in Bev resistant tumors. The class given is in vivo, mice. The following applies: 10 mg/kg (FIG. 13), without magnetic field.

“Also recorded” adds a separate entry of the source.

For the molecule `O=c1[nH]cc(F)c(=O)[nH]1` [5FU, 5-Fluorouracil], in data set [1], the “tumor volume / tumor growth” value was “No significant changes in tumor volumes; also recorded: did not inhibit CT26 tumor growth at all; also recorded: no significant difference”. Consider “AV-IO/HSA: Avastin covalently bound via NHS-PEG-MA to IO/HSA nanoparticles”, for which the “calculated bound avastin concentration” value in data set [2] was 0.10 mg/1 mg of the nanoparticles. For bevacizumab, the tumor growth entry in data set [3] (local administration) and in data set [3] (systemic administration) was “did not yield inhibition of tumor growth; also recorded: had no effect on tumor growth” throughout.

These data come from US20220047702A1, “TARGETED MAGNETIC VEHICLES AND METHOD OF USING THE SAME” (HADASIT MEDICAL RESEARCH SERVICES AND DEVELOPMENT LTD., priority 2019, published 2022).
